Data taken from article PMC8997913, “Lichen Secondary Metabolites Inhibit the Wnt/β-Catenin Pathway in Glioblastoma Cells and Improve the Anticancer Effects of Temozolomide” (Cells, 2022).

Legend:
[1] = system: T98G cells; assay: Cell cycle distribution, flow cytometry, T98G; type: cell-based, human; conditions: 48 h
Protocol: (§1) Based on the MTT test, the lichen secondary metabolite concentrations allowing the survival of more than 70% of cells were chosen for the subsequent experiments. The compounds were added as follows: A-172 cells—atranorin 25 µM, caperatic acid 50 µM, physodic acid 25 µM, squamatic acid 25 µM, salazinic acid 50 µM, and lecanoric acid 100 µM; T98G cells—atranorin 50 µM, caperatic acid 100 µM, physodic acid 25 µM, squamatic acid 50 µM, salazinic acid 100 µM, and lecanoric acid 100 µM; U-138 MG cells—atranorin 25 µM, caperatic acid 50 µM, physodic acid 25 µM, squamatic acid 50 µM, salazinic acid 50 µM, and lecanoric acid 100 µM. As far as the TMZ treatment is concerned, it was added in the concentrations depending on the MGMT expression and methylation status, i.e., TMZ 30 µM was added to the A-172 cell line, and TMZ 100 µM was added to both the T98G and U-138 MG cell lines. In the case of the 2D culture, the cells were treated with the compounds 24 h after seeding, whereas, in regard to 3D culture, 5 days were needed to form spheroids. All subsequent analyses were performed 48 h after treatment.
The Muse Cell Cycle Kit and the Muse Cell Cycle Software (both Merck, Darmstadt, Germany) were used to quantitatively measure the percentage of cells in the G0/G1, S, and G2/M phases of the cell cycle. The assay utilizes the nuclear DNA intercalating stain propidium iodide and RNAse A in a formulation. Propiodium iodide discriminates cells at different stages of the cell cycle, based on differential DNA content, while the presence of RNAse increases the specificity of DNA staining. Briefly, the cells were seeded on 6-well plates (100,000 cells per well) and incubated for 24 h. Afterward, the lichen secondary metabolites were added to the concentrations chosen based on the MTT test, allowing >70% of cell survival. 0.5% DMSO and 100 nM topotecan were used as negative and positive controls, respectively. The analysis was performed after a 48 h incubation with lichen secondary metabolites and started with washing the cells with PBS, followed by cell fixation with ice-cold ethanol and overnight incubation at −20 °C. Following steps included cell re-washing with PBS, then a 30 min incubation in the dark with propiodium iodide-RNAse A formulation, and a final analysis on Muse™ Cell Analyzer (Merck, Darmstadt, Germany).

[2] = system: Wnt/β-catenin pathway target genes in T98G cells; assay: qPCR of β-catenin and Wnt target genes, T98G; type: cell-based, human; conditions: 48 h
Protocol: as §1
The Universal RNA Purification Kit (EURx, Gdańsk, Poland) was used for total RNA isolation from the A-172, T98G, and U-138 MG cells, and the Revert-Aid First Strand cDNA Synthesis kit (Fermentas, Burlington, ON, Canada) was chosen for cDNA synthesis. Quantitative real-time PCR (qPCR) was performed using Hot FIREPol EvaGreen qPCR Mix Plus (Solis Biodyne, Tartu, Estonia) and LightCycler 96 (Roche Diagnostics GmbH, Mannheim, Germany). Primer sequences were previously published and their synthesis was performed at the Institute of Biochemistry and Biophysics, Warsaw, Poland. The protocol started with 15 min enzyme activation at 95 °C, followed by 40 cycles of 95 °C for 15 s; appropriate annealing temperature for 20 s; 72 °C for 40 s and the final elongation at 72 °C for 5 min. Melting curve analysis was used to confirm the generation of a single amplification product. TATA box-binding protein (TBP), a component of the DNA-binding protein complex TFIID, served as the endogenous RNA control. The results were expressed as N-fold differences in the gene expression relative to the TBP gene. The ΔΔCt method was used for fold-change calculation. All samples were analyzed in triplicate, and the reaction was repeated at least twice.

[3] = system: U-138 MG cells; assay: MTT test, U-138 MG; type: cell-based, human; conditions: 48 h; for IC50: Homo sapiens, U138-MG, three independent experiments, read-out: IC50 [uM] ± SEM U-138 MG
Protocol: (§2) Three human GBM cell lines were used in this study, i.e., A-172 (ATCC-CRL-1620), T98G (92090213), and U-138 MG (ATCC-HTB-16). The A-172 and U-138 MG cell lines were purchased from the American Type Culture Collection (ATCC), whereas the T98G cell line was obtained from the European Collection of Authenticated Cell Cultures (ECACC). It has been confirmed by us that O^6-methylguanine-DNA methyltransferase (MGMT), the key factor determining the response to alkylating agents, such as TMZ, is expressed in T98G and U-138 MG cells, whereas in A-172 the expression of MGMT is silenced by promoter methylation. Therefore, the cell lines differ in terms of TMZ sensitivity; A-172 is regarded as TMZ sensitive, whereas T98G and U-138 MG are TMZ resistant.
(§3) The cells were grown as monolayers (2D cell culture) in the recommended media: A-172 were grown in the ATCC-formulated DMEM (Merck, Darmstadt, Germany), whereas T98G and U-138 MG cell lines were grown in the ATCC-formulated EMEM (Merck, Darmstadt, Germany). These media were supplemented with FBS (Biowest, Nuaillé, France) to a final concentration of 10%, as well as antibiotics (penicillin and streptomycin) (Merck, Darmstadt, Germany) to the final concentrations of 1%. For the experiments, the amount of FBS was reduced to 5%. The medium for the T98G cell line was supplemented with 2 mM glutamine, 1% nonessential amino acids, and 1% sodium pyruvate (all purchased from Merck, Darmstadt, Germany).
(§4) In order to analyze the cytotoxicity of the analyzed lichen secondary metabolites, as well as to establish the appropriate concentrations for further analysis (allowing the survival of >70% of cells), we performed the MTT test. The procedure of the test was described previously. Briefly, the cells (10,000 cells per well) were seeded on the 96-well plates and left for 24 h. Afterwards, the analyzed compounds in the concentration range of 1 µM up to 100 µM were added to the cells and left for 48 h incubation. DMSO treated cells served as control. After the above-mentioned time, the cells were washed twice with warm PBS and incubated for 3 h in the presence of a fresh medium containing MTT salt (0.5 mg/mL). Then the formazan crystals were dissolved in acidic isopropanol. The absorbance was measured at 570 and 690 nm on a Tecan Infinite M200 microplate reader (Grödig, Austria). The experiments were repeated at least three times.

[4] = system: T98G cells; assay: MTT test, T98G; type: cell-based; conditions: Homo sapiens, 48 h, three independent experiments, read-out: IC50 [uM] ± SEM T98G
Protocol: as §2, §3, §4

[5] = system: A-172 cells; assay: MTT test, A-172; type: cell-based, human; conditions: for number of living cells: A-172, 1–100 µM; for IC50: A 172, 48 h, three independent experiments, read-out: IC50 [uM] ± SEM A-172
Protocol: as §2, §3, §4

[6] = mRNA vs DMSO control, single agent

Compound | number of cells in G0/G1 phases vs control [1] | number of cells in S phase vs control [1] | c-MYC expression [2, 6] | IC50 [3] [µM] | IC50 [4] [µM] | number of living cells ([5]; 48 h) | IC50 ([5]; Homo sapiens) [µM] | NEDD9 expression [2, 6] | viability at 100 µM ([5]; Homo sapiens, A-172, highest tested concentration (100 µM), 48 h) [%] | Axin2 expression ([2]; co-treatment with TMZ 100 µM) | CCND1 expression ([2]; co-treatment with TMZ 100 µM) | c-MYC expression ([2]; co-treatment with TMZ 100 µM) | β-catenin (CTNNB1) expression ([2]; co-treatment with TMZ 100 µM) | cells killed ([5]; A-172, 100 µM, 48 h) | percentage of cells in G2/M phases vs control [1] | number of the six analyzed genes downregulated ([2]; co-treatment with TMZ 100 µM) | CCND1 expression [2, 6] | BIRC5 expression ([2]; mRNA vs DMSO control, single agent, TMZ 100 µM) | number of viable cells ([3]; U-138 MG, 50 µM) | NEDD9 expression ([2]; co-treatment with TMZ 100 µM)
COC(=O)c1c(C)cc(OC(=O)c2c(C)cc(O)c(C=O)c2O)c(C)c1O [Atranorin] | slightly increased | reduced | trend towards downregulation, but with no statistical significance | 47.8 ± 2.16 | 98.6 ± 7.8 | reduced the number of living cells in the whole analyzed concentration range | 90.9 ± 3.7 |  |  |  |  |  |  |  |  |  |  |  |  | 
CCCCCCCCCCCCCCC(C(=O)O)C(O)(CC(=O)OC)C(=O)O (centres unmarked) [Caperatic acid] | diminished |  |  | > 100 | > 100 |  | 80.1 ± 1.88 | downregulated | 11.7 ± 5.51 |  |  |  |  |  |  |  |  |  |  | 
Cc1cc(OC(=O)c2c(C)cc(O)cc2O)cc(O)c1C(=O)O [Lecanoric acid] |  |  |  | > 100 | > 100 |  | > 100 |  |  | downregulated | downregulated | downregulated | downregulated | ~ 30% |  |  |  |  |  | 
Cc1cc(O)c(C=O)c2c1C(=O)Oc1c(CO)c(O)c3c(c1O2)C(O)OC3=O (centres unmarked) [Salazinic acid] | slightly increased | reduced | upregulated | > 100 |  |  |  |  |  | trend toward downregulation |  |  |  |  | diminished | five out of six | significantly upregulated | downregulated | significantly reduced the number of viable cells | 
COc1cc(C)c(C(=O)Oc2cc(C)c(C(=O)O)c(O)c2C)c(O)c1C(=O)O [Squamatic acid] |  |  | trend towards downregulation, but with no statistical significance | > 100 | > 100 | reduced the number of living cells in the whole analyzed concentration range | 84.9 ± 3.62 | downregulation |  |  | downregulated | downregulated | downregulated |  |  |  |  |  |  | downregulated
